According to PubChem BioAssay AID2060490 (Molecular Pharmacology Branch, DTP, NCI, 2025):
pIC50: −log10 of the molar value.

Tested on: 885512-296-R-J2-PDC complex spheroid viability
Test: Anticancer human tumor 885512-296-R-J2-PDC patient-derived breast carcinoma cell line growth inhibition [GQUAD]
Conditions: for pIC50: curve of first compound; for viability, T/C: stronger effect = lower value
Method in brief: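 Viability of tumor cells grown as complex spheroids with endothelial and stromal cells, exposed to drug combinations. Top concentration at or near clinical Cmax (else 10 microM), diluted in half-log increments.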

[1] = second compound 0.0316 µM, first compound 0.0316 µM
[2] = second compound 0.0316 µM, first compound 0.1 µM
[3] = second compound 0.0316 µM, first compound 0.316 µM
[4] = second compound 0.0316 µM, first compound 1 µM
[5] = second compound 0.0316 µM, first compound 3.16 µM
[6] = second compound 0.0316 µM, first compound 10 µM
[7] = second compound 0.1 µM, first compound 0.0316 µM
[8] = second compound 0.1 µM, first compound 0.1 µM
[9] = second compound 0.1 µM, first compound 0.316 µM
[10] = second compound 0.1 µM, first compound 1 µM
[11] = second compound 0.1 µM, first compound 3.16 µM
[12] = second compound 0.1 µM, first compound 10 µM
[13] = second compound 0.316 µM, first compound 0.0316 µM
[14] = second compound 0.316 µM, first compound 0.1 µM
[15] = second compound 0.316 µM, first compound 0.316 µM
[16] = second compound 0.316 µM, first compound 1 µM
[17] = second compound 0.316 µM, first compound 3.16 µM
[18] = second compound 0.316 µM, first compound 10 µM
[19] = second compound 1 µM, first compound 0.0316 µM
[20] = second compound 1 µM, first compound 0.1 µM
[21] = second compound 1 µM, first compound 0.316 µM
[22] = second compound 1 µM, first compound 1 µM
[23] = second compound 1 µM, first compound 3.16 µM
[24] = second compound 1 µM, first compound 10 µM
[25] = second compound 3.16 µM, first compound 0.0316 µM
[26] = second compound 3.16 µM, first compound 0.1 µM
[27] = second compound 3.16 µM, first compound 0.316 µM
[28] = second compound 3.16 µM, first compound 1 µM
[29] = second compound 3.16 µM, first compound 3.16 µM
[30] = second compound 3.16 µM, first compound 10 µM
[31] = second compound 10 µM, first compound 0.0316 µM
[32] = second compound 10 µM, first compound 0.1 µM
[33] = second compound 10 µM, first compound 0.316 µM
[34] = second compound 10 µM, first compound 1 µM
[35] = second compound 10 µM, first compound 3.16 µM
[36] = second compound 10 µM, first compound 10 µM
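Also: spheroids exposed to the compounds for one week.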
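For viability, T/C in this document: percent of tumor spheroid viability relative to DMSO vehicle control wells.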

COc1ncnc(C2CC2)c1-c1ncc2cnn(Cc3ccc(-c4nc(C(F)(F)F)cn4C(C)C)cc3)c2n1 + CN(C)c1ccc(Nc2c3ccc(NC(=O)CCN4CCCC4)cc3nc3cc(NC(=O)CCN4CCCC4)ccc23)cc1 gave a pIC50 (second compound 0.0316 µM) of less than 5.00, a pIC50 (second compound 0.1 µM) of less than 5.00 and a pIC50 (second compound 0.316 µM) of less than 5.00. For the same compound, the pIC50 (second compound 1 µM) was less than 5.00, the pIC50 (second compound 3.16 µM) was less than 5.00 and the pIC50 (second compound 10 µM) was greater than 7.50. It also gave a viability, T/C [1] of 107%, a viability, T/C [2] of 102% and a viability, T/C [3] of 93.3%. It also gave a viability, T/C [4] of 104%, a viability, T/C [5] of 100% and a viability, T/C [6] of 92.3%. For the same compound, the viability, T/C [7] was 103%, the viability, T/C [8] was 103% and the viability, T/C [9] was 97.3%. For the same compound, the viability, T/C [10] was 93.6%, the viability, T/C [11] was 92.5% and the viability, T/C [12] was 81.4%. It also gave a viability, T/C [13] of 105%, a viability, T/C [14] of 108% and a viability, T/C [15] of 103%. For the same compound, the viability, T/C [16] was 103%, the viability, T/C [17] was 104% and the viability, T/C [18] was 85.8%. The viability, T/C [19] was 95%, the viability, T/C [20] was 97.2% and the viability, T/C [21] was 103%. The viability, T/C [22] was 91%, the viability, T/C [23] was 101% and the viability, T/C [24] was 87.4%. The viability, T/C [25] was 99.4%, the viability, T/C [26] was 107% and the viability, T/C [27] was 106%. For the same compound, the viability, T/C [28] was 83.9%, the viability, T/C [29] was 81.3% and the viability, T/C [30] was 50.3%. For the same compound, the viability, T/C [31] was 28.5%, the viability, T/C [32] was 18.7% and the viability, T/C [33] was 16.4%. The viability, T/C [34] was 15.3%, the viability, T/C [35] was 11.9% and the viability, T/C [36] was 5.91%.

For Cc1[nH]c2ccccc2c1CCNCc1ccc(/C=C/C(=O)NO)cc1 + CN(C)c1ccc(Nc2c3ccc(NC(=O)CCN4CCCC4)cc3nc3cc(NC(=O)CCN4CCCC4)ccc23)cc1, the pIC50 (second compound 0.0316 µM) was 7.58, the pIC50 (second compound 0.1 µM) was 7.61 and the pIC50 (second compound 0.316 µM) was 7.69. It also gave a pIC50 (second compound 1 µM) of 7.51, a pIC50 (second compound 3.16 µM) of 8.07 and a pIC50 (second compound 10 µM) greater than 9.00. It also gave a viability, T/C (second compound 0.0316 µM, first compound 0.000999 µM) of 96.5%, a viability, T/C (second compound 0.0316 µM, first compound 0.00316 µM) of 84.1% and a viability, T/C (second compound 0.0316 µM, first compound 0.00999 µM) of 70.8%. For the same compound, the viability, T/C [1] was 40.1%, the viability, T/C (second compound 0.0316 µM, first compound 0.0999 µM) was 30.1% and the viability, T/C [3] was 3.59%. It also gave a viability, T/C (second compound 0.1 µM, first compound 0.000999 µM) of 95.6%, a viability, T/C (second compound 0.1 µM, first compound 0.00316 µM) of 91.7% and a viability, T/C (second compound 0.1 µM, first compound 0.00999 µM) of 64.8%. It also gave a viability, T/C [7] of 44.1%, a viability, T/C (second compound 0.1 µM, first compound 0.0999 µM) of 25.3% and a viability, T/C [9] of 4.19%. It also gave a viability, T/C (second compound 0.316 µM, first compound 0.000999 µM) of 103%, a viability, T/C (second compound 0.316 µM, first compound 0.00316 µM) of 93.2% and a viability, T/C (second compound 0.316 µM, first compound 0.00999 µM) of 63%. It also gave a viability, T/C [13] of 35.9%, a viability, T/C (second compound 0.316 µM, first compound 0.0999 µM) of 28.6% and a viability, T/C [15] of 4.61%. For the same compound, the viability, T/C (second compound 1 µM, first compound 0.000999 µM) was 85.7%, the viability, T/C (second compound 1 µM, first compound 0.00316 µM) was 94.4% and the viability, T/C (second compound 1 µM, first compound 0.00999 µM) was 63.7%. For the same compound, the viability, T/C [19] was 48%, the viability, T/C (second compound 1 µM, first compound 0.0999 µM) was 29.5% and the viability, T/C [21] was 4.03%. The viability, T/C (second compound 3.16 µM, first compound 0.000999 µM) was 80%, the viability, T/C (second compound 3.16 µM, first compound 0.00316 µM) was 64.7% and the viability, T/C (second compound 3.16 µM, first compound 0.00999 µM) was 46.5%. The viability, T/C [25] was 30.1%, the viability, T/C (second compound 3.16 µM, first compound 0.0999 µM) was 24.6% and the viability, T/C [27] was 5.49%. It also gave a viability, T/C (second compound 10 µM, first compound 0.000999 µM) of 18.2%, a viability, T/C (second compound 10 µM, first compound 0.00316 µM) of 17.7% and a viability, T/C (second compound 10 µM, first compound 0.00999 µM) of 11.3%. For the same compound, the viability, T/C [31] was 10.3%, the viability, T/C (second compound 10 µM, first compound 0.0999 µM) was 13% and the viability, T/C [33] was 2.87%.

Work on O=c1[nH]cc(F)c(=O)[nH]1 + CN(C)c1ccc(Nc2c3ccc(NC(=O)CCN4CCCC4)cc3nc3cc(NC(=O)CCN4CCCC4)ccc23)cc1 yielded a pIC50 (second compound 0.0316 µM) of less than 5.00, a pIC50 (second compound 0.1 µM) of less than 5.00 and a pIC50 (second compound 0.316 µM) of less than 5.00. It also gave a pIC50 (second compound 1 µM) of less than 5.00, a pIC50 (second compound 3.16 µM) of less than 5.00 and a pIC50 (second compound 10 µM) greater than 7.50. For the same compound, the viability, T/C [1] was 100%, the viability, T/C [2] was 92.7% and the viability, T/C [3] was 91.6%. The viability, T/C [4] was 98.8%, the viability, T/C [5] was 58.7% and the viability, T/C [6] was 64.3%. The viability, T/C [7] was 101%, the viability, T/C [8] was 108% and the viability, T/C [9] was 117%. The viability, T/C [10] was 96.4%, the viability, T/C [11] was 59.5% and the viability, T/C [12] was 60.1%. It also gave a viability, T/C [13] of 105%, a viability, T/C [14] of 98.7% and a viability, T/C [15] of 120%. For the same compound, the viability, T/C [16] was 102%, the viability, T/C [17] was 62.3% and the viability, T/C [18] was 60%. For the same compound, the viability, T/C [19] was 96.4%, the viability, T/C [20] was 102% and the viability, T/C [21] was 97.5%. It also gave a viability, T/C [22] of 84%, a viability, T/C [23] of 55.8% and a viability, T/C [24] of 58.4%. It also gave a viability, T/C [25] of 90.9%, a viability, T/C [26] of 96.9% and a viability, T/C [27] of 104%. The viability, T/C [28] was 77.9%, the viability, T/C [29] was 64.3% and the viability, T/C [30] was 59.1%. It also gave a viability, T/C [31] of 24.8%, a viability, T/C [32] of 20.1% and a viability, T/C [33] of 19.2%. For the same compound, the viability, T/C [34] was 25.5%, the viability, T/C [35] was 23.2% and the viability, T/C [36] was 18%.
